The structures appear in SMILES notation. Where only a bound is given, the exact number is not on record here.

The experiment deals with T1, human PAH with the R408W mutation (Homo sapiens, UniProt P00439, R408W).
T1 construct: expressed in transfected cells
T1 sequence (P00439 1-452 R408W): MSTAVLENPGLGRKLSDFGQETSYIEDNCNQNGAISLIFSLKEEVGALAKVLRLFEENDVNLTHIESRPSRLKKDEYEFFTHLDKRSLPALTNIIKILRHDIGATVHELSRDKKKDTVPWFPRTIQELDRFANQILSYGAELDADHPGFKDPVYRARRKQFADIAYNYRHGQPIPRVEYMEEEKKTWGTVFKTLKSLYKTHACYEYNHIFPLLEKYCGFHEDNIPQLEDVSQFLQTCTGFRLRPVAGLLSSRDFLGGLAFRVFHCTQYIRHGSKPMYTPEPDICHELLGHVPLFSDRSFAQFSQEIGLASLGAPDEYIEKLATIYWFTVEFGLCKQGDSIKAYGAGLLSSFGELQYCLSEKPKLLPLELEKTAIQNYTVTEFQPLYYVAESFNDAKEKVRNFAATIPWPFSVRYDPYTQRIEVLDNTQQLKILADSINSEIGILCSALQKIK
Briefly: Cell Based Phenylalanine Flux Assay.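 Note: after compound treatment, cells received sepiapterin plus isotope-labelled Phenylalanine for 4 hours, then labelled Tyrosine in the medium was quantified, 10-point 2-fold dilution series run in duplicate.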 Conditions: A375 cells expressing R408W PAH; 24 hrs with compound, then 20 µM sepiapterin and 800 µM 13C9,15N-Phenylalanine for 4 hours; 13C-Tyrosine by LC-MS; average where tested multiple times; read-out: AC50.
Usually AC50 stands for the midpoint of the concentration-response curve, whichever way the signal moves. Turning to `O=C(Cc1cnn2ccccc12)N1CCc2[nH]cnc2C1c1cc2ccccn2n1` (centres unmarked), the AC50 was > 5 µM.

With `Cc1cccc2cc(C3c4nc[nH]c4CCN3C(=O)c3nc(C(F)(F)F)nn3C)nn12` (centres unmarked) [listing 1 of 2 here], the AC50 was > 5 µM. In the case of `Cc1ccn2nc(C3c4nc[nH]c4CCN3C(=O)c3nnc(C(C)(C)F)o3)cc2c1` (centres unmarked) [listing 1 of 2 here], the AC50 was > 5 µM. As for `O=C(c1ccn(-c2ccccn2)n1)N1CCc2[nH]cnc2C1c1cc2c(F)cccn2n1` (centres unmarked) [listing 1 of 2 here], the figure is 1 to 5 µM. As to `Cc1cccn2nc(C3c4nc[nH]c4CCN3C(=O)c3ccn(-c4ccccn4)n3)cc12` (centres unmarked) [listing 1 of 2 here], the AC50 was > 5 µM. On to `Cc1nnc(C(=O)N2CCc3[nH]cnc3C2c2cc3c(F)cccn3n2)o1` (centres unmarked) [listing 1 of 2 here], for which the AC50 was > 5 µM.

In the case of `Cc1ccn2nc(C3c4nc[nH]c4CCN3C(=O)c3nnc(C(C)(C)O)o3)cc2c1` (centres unmarked) [listing 1 of 2 here], the AC50 was > 5 µM. With `Cc1ccn2nc(C3c4nc[nH]c4CCN3C(=O)c3nnc(C(C)(C)C)o3)cc2c1` (centres unmarked) [listing 1 of 2 here], the AC50 was 1 to 5 µM. As for `Cc1cccn2nc(C3c4nc[nH]c4CCN3C(=O)c3cc(C(C)(C)C)nn3C)cc12` (centres unmarked) [listing 1 of 2 here], the figure is > 5 µM; as for `Cn1nc(C(C)(C)C)cc1C(=O)N1CCc2[nH]cnc2C1c1cc2ccccn2n1` (centres unmarked) [listing 1 of 2 here], 1 to 5 µM. In the case of `CN1CCN(c2nnc(C(=O)N3CCc4[nH]cnc4C3c3cc4c(F)cccn4n3)o2)CC1` (centres unmarked) it was 1 to 5 µM. For `Cc1cccn2nc(C3c4nc[nH]c4CCN3C(=O)c3nnc(N4CCN(C)CC4)o3)cc12` (centres unmarked), the AC50 lay within 1 to 5 µM. In the case of `Cc1cccc2cc(C3c4nc[nH]c4CCN3C(=O)c3nc(C(F)(F)F)nn3C)nn12` (centres unmarked) [listing 2 of 2 here], the AC50 lay in the range of 1 to 5 µM.

With `Cc1cccc2cc(C3c4nc[nH]c4CCN3C(=O)c3ncnn3C)nn12` (centres unmarked), the AC50 is 1 to 5 µM. As for `Cc1nc(C(=O)N2CCc3[nH]cnc3C2c2cc3ccccn3n2)n(C)n1` (centres unmarked), the figure is 1 to 5 µM. As to `Cc1cccc2cc(C3c4nc[nH]c4CCN3C(=O)c3nnc(-c4cncn4C)o3)nn12` (centres unmarked), the AC50 fell in the range of 1 to 5 µM. Turning to `Cc1ccn2nc(C3c4nc[nH]c4CCN3C(=O)c3nnc(C(C)(C)F)o3)cc2c1` (centres unmarked) [listing 2 of 2 here], the AC50 was in the range of 1 to 5 µM. In the case of `O=C(c1ccn(-c2ccccn2)n1)N1CCc2[nH]cnc2C1c1cc2c(F)cccn2n1` (centres unmarked) [listing 2 of 2 here] it was 1 to 5 µM; in that of `Cc1cccn2nc(C3c4nc[nH]c4CCN3C(=O)c3ccn(-c4ccccn4)n3)cc12` (centres unmarked) [listing 2 of 2 here], 1 to 5 µM. As for `Cc1nnc(C(=O)N2CCc3[nH]cnc3C2c2cc3c(F)cccn3n2)o1` (centres unmarked) [listing 2 of 2 here], the figure is 1 to 5 µM. Consider `Cn1cc(-c2nnc(C(=O)N3CCc4[nH]cnc4C3c3cc4cc(F)ccn4n3)o2)cn1` (centres unmarked), for which the AC50 lay in the range of 1 to 5 µM. As for `CC(C)(O)c1nnc(C(=O)N2CCc3[nH]cnc3C2c2cc3c(C(F)(F)F)cccn3n2)o1` (centres unmarked), the figure is 1 to 5 µM; as for `Cc1ccn2nc(C3c4nc[nH]c4CCN3C(=O)c3nnc(C(C)(C)O)o3)cc2c1` (centres unmarked) [listing 2 of 2 here], 1 to 5 µM. `CC(C)(O)c1nnc(C(=O)N2CCc3[nH]cnc3C2c2cc3ccccn3n2)o1` (centres unmarked): the AC50 was 1 to 5 µM. As for `Cc1ccn2nc(C3c4nc[nH]c4CCN3C(=O)c3nnc(C)o3)cc2c1` (centres unmarked), the figure is > 5 µM; as for `Cc1nnc(C(=O)N2CCc3[nH]cnc3C2c2cc3cccc(C)n3n2)o1` (centres unmarked), 1 to 5 µM; as for `Cc1ccn2nc(C3c4nc[nH]c4CCN3C(=O)c3nnc(C(C)(C)C)o3)cc2c1` (centres unmarked) [listing 2 of 2 here], 1 to 5 µM. As for `Cc1cccc2cc(C3c4nc[nH]c4CCN3C(=O)c3nc(C(F)F)nn3C)nn12` (centres unmarked), the figure is 1 to 5 µM.

On to `Cn1nc(C(F)F)nc1C(=O)N1CCc2[nH]cnc2C1c1cc2cc(F)ccn2n1` (centres unmarked), for which the AC50 is 1 to 5 µM. As to `Cc1cccc2cc(C3c4nc[nH]c4CCN3C(=O)c3nc(C4CC4)nn3C)nn12` (centres unmarked), the AC50 lay in the range of 1 to 5 µM.

Take `Cc1cccn2nc(C3c4nc[nH]c4CCN3C(=O)c3cc(C(C)(C)C)nn3C)cc12` (centres unmarked) [listing 2 of 2 here]: the AC50 fell in the range of 1 to 5 µM.

As to `Cn1nc(C(C)(C)C)cc1C(=O)N1CCc2[nH]cnc2C1c1cc2ccccn2n1` (centres unmarked) [listing 2 of 2 here], the AC50 fell in the range of 1 to 5 µM. Consider `Cn1nc(C(C)(C)C)cc1C(=O)N1CCc2[nH]cnc2C1c1cc2c(F)cccn2n1` (centres unmarked), for which the AC50 was 1 to 5 µM. Regarding `COc1cccn2nc(C3c4nc[nH]c4CCN3C(=O)c3cc(C(C)(C)C)nn3C)cc12` (centres unmarked), the AC50 was in the range of 1 to 5 µM. In the case of `O=C(c1ocnc1CC(F)F)N1CCc2[nH]cnc2C1c1cc2ccccn2n1` (centres unmarked), the AC50 lay within 1 to 5 µM.
